The record followed here is US8796289B2 (AbbVie Inc., priority 2011, dated 2014).

Sequence of GST-tagged-Wee1 kinase (P30291 whole entry): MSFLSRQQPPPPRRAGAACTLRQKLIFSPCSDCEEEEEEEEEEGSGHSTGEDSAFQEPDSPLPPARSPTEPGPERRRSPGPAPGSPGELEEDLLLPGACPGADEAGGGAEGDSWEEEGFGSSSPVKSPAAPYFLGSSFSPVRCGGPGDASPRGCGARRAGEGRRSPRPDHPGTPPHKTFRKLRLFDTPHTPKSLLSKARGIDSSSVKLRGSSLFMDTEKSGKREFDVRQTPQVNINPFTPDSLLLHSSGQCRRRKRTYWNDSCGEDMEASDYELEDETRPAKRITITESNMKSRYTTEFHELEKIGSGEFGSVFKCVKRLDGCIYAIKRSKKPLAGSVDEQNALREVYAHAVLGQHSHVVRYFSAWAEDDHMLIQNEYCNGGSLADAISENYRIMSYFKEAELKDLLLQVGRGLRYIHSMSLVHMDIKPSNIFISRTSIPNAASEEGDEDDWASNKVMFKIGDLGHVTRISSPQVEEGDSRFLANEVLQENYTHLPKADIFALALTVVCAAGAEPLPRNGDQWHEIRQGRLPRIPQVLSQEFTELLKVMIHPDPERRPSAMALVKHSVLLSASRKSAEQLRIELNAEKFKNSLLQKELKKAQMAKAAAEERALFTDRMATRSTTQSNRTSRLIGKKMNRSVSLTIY

This test has as its target GST-tagged-Wee1 kinase (Homo sapiens, UniProt P30291). The test can be described thus: Wee1 time-resolved fluorescence equilibrium binding assay (displacement of Oregon Green-labeled ATP-competitive kinase probe). The method, then: Wee1 kinase was assayed using a time-resolved fluorescence equilibrium binding assay monitoring displacement of a rapidly reversible Oregon Green-labeled ATP-competitive kinase probe (N-(2-(2-(2-(4-(4-(5-chloro-4-(2-(1-hydroxycyclobutyl)thiazol-5-yl)-1H-pyrrolo[2,3-b]pyridin-2-yl)phenyl)piperazin-1-yl)ethoxy)ethoxy)ethyl)-2′,7′-difluoro-3′,6′-dihydroxy-3-oxo-3H-spiro[isobenzofuran-1,9′-xanthene]-5-carboxamide) by competitive Wee1 inhibitors.
Usually Ki stands for the equilibrium dissociation constant of an inhibitor or competing ligand from its target. As for `CN1CCN(c2ccc(Nc3ncc4c(=O)n(-c5c(Cl)cccc5Cl)nc(-c5cccnc5Cl)c4n3)cc2)CC1` [Example 81, 8-(2-chloropyridin-3-yl)-6-(2,6-dichlorophenyl)-2-{[4-(4-methylpiperazin-1-yl)phenyl]amino}pyrimido[4,5-d]pyridazin-5(6H)-one], the affinity corresponds to a Ki of 4000 pM. This lies in the single-digit nanomolar range. The molecule `Cc1cc(Nc2ncc3c(=O)n(-c4c(Cl)cccc4Cl)nc(-c4ccccn4)c3n2)ccc1N1CCCN(C)CC1` [Example 223] gave a Ki of 200 pM. As for `CN1Cc2cc(Nc3ncc4c(=O)n(-c5c(Cl)cccc5Cl)nc(-c5cncs5)c4n3)ccc2C2(CC2)C1` [Example 317, 6-(2,6-dichlorophenyl)-2-[(2′-methyl-2′,3′-dihydro-1′H-spiro[cyclopropane-1,4′-isoquinolin]-7′-yl)amino]-8-(1,3-thiazol-5-yl)pyrimido[4,5-d]pyridazin-5(6H)-one], the figure is 380 pM. Then `Cc1nn(-c2c(Cl)cccc2Cl)c(=O)c2cnc(Nc3ccc(N4CCN(CCCN(C)C)CC4)cc3)nc12` [Example 517, 6-(2,6-dichlorophenyl)-2-[(4-{4-[3-(dimethylamino)propyl]piperazin-1-yl}phenyl)amino]-8-methylpyrimido[4,5-d]pyridazin-5(6H)-one], with 240 pM; and `CN1CCN(c2ccc(Nc3ncc4c(=O)n(-c5c(Cl)cccc5Cl)nc(C5CCC5)c4n3)cc2)CC1` [Example 278, 8-cyclobutyl-6-(2,6-dichlorophenyl)-2-{[4-(4-methylpiperazin-1-yl)phenyl]amino}pyrimido[4,5-d]pyridazin-5(6H)-one], with 830 pM.

Turning to `CCc1nn(-c2c(Cl)cccc2Cl)c(=O)c2cnc(Nc3ccc(N4CCN(C)CC4)cc3)nc12` [Example 388, 6-(2,6-dichlorophenyl)-8-ethyl-2-{[4-(4-methylpiperazin-1-yl)phenyl]amino}pyrimido[4,5-d]pyridazin-5(6H)-one], the affinity, expressed as Ki, was 330 pM. In turn, `CCOc1ncccc1-c1nn(-c2ccccc2)c(=O)c2cnc(Nc3ccc(N4CCN(C)CC4)cc3)nc12` [Example 79, 8-(2-ethoxypyridin-3-yl)-2-{[4-(4-methylpiperazin-1-yl)phenyl]amino}-6-phenylpyrimido[4,5-d]pyridazin-5(6H)-one] displayed a Ki of 710000 pM.

On to `CN1CCN(c2ccc(Nc3ncc4c(=O)n(-c5ccccc5)nc(-c5ccncc5)c4n3)cc2)CC1` [Example 154, 2-{[4-(4-methylpiperazin-1-yl)phenyl]amino}-6-phenyl-8-(pyridin-4-yl)pyrimido[4,5-d]pyridazin-5(6H)-one], for which the Ki came out at 9000 pM. Then `CCc1nn(-c2c(Cl)cccc2Cl)c(=O)c2cnc(Nc3ccc(N4CCNCC4)cc3)nc12` [Example 409, 6-(2,6-dichlorophenyl)-8-ethyl-2-{[4-(piperazin-1-yl)phenyl]amino}pyrimido[4,5-d]pyridazin-5(6H)-one], with 1000 pM; and `C=CCn1nc(-c2ccccc2)c2nc(Nc3ccc(N4CCCN(C(C)C)CC4)c(C)c3)ncc2c1=O` [Example 115, 6-allyl-2-{[4-(4-isopropyl-1,4-diazepan-1-yl)-3-methylphenyl]amino}-8-phenylpyrimido[4,5-d]pyridazin-5(6H)-one], with 4000 pM. Then `Cc1nn(-c2c(Cl)cccc2Cl)c(=O)c2cnc(Nc3ccc4c(c3)C(C)(C)NCC4)nc12` [Example 444, 6-(2,6-dichlorophenyl)-2-[(1,1-dimethyl-1,2,3,4-tetrahydroisoquinolin-7-yl)amino]-8-methylpyrimido[4,5-d]pyridazin-5(6H)-one], with 160 pM. Then `CN1CCN(c2ccc(Nc3ncc4c(=O)n(-c5c(Cl)cccc5Cl)ncc4n3)cc2)CC1` [Example 323, 6-(2,6-dichlorophenyl)-2-{[4-(4-methylpiperazin-1-yl)phenyl]amino}pyrimido[4,5-d]pyridazin-5(6H)-one], with 490 pM; and `C=CCn1nc(-c2cccs2)c2nc(Nc3ccc(CN(C)C)cc3)ncc2c1=O` [Example 210, 2-({4-[(dimethylamino)methyl]phenyl}amino)-6-(prop-2-en-1-yl)-8-(thiophen-2-yl)pyrimido[4,5-d]pyridazin-5(6H)-one], with 33000 pM. `CN1CCN(c2ccc(Nc3ncc4c(=O)n(-c5c(Cl)cccc5Cl)nc(-c5ccccn5)c4n3)cc2)CC1` [Example 103, 6-(2,6-dichlorophenyl)-2-{[4-(4-methylpiperazin-1-yl)phenyl]amino}-8-(pyridin-2-yl)pyrimido[4,5-d]pyridazin-5(6H)-one] registered a Ki of 200 pM.

`CN1CCN(c2ccc(Nc3ncc4c(=O)n(-c5c(Cl)cccc5Cl)nc(-c5cccc(NNc6c(Cl)cccc6Cl)n5)c4n3)cc2)CC1` [Example 76, 6-(2,6-dichlorophenyl)-8-{6-[2-(2,6-dichlorophenyl)hydrazino]pyridin-2-yl}-2-{[4-(4-methylpiperazin-1-yl)phenyl]amino}pyrimido[4,5-d]pyridazin-5(6H)-one]: the Ki turned out to be 4000 pM. Then `CN1CCN(c2ccc(Nc3ncc4c(=O)n(-c5ccccc5)nc(-c5ccccc5)c4n3)cc2)CC1` [Example 27, 2-{[4-(4-methylpiperazin-1-yl)phenyl]amino}-6,8-diphenylpyrimido[4,5-d]pyridazin-5(6H)-one], with 2000 pM; and `C=CCn1nc(-c2ccccc2)c2nc(Nc3ccc4c(c3)CN(C)CC43CC3)ncc2c1=O` [Example 172, 6-allyl-2-[(2′-methyl-2′,3′-dihydro-1′H-spiro[cyclopropane-1,4′-isoquinolin]-7′-yl)amino]-8-phenylpyrimido[4,5-d]pyridazin-5(6H)-one], with 2500 pM. Then `Cc1nn(-c2c(Cl)cccc2Cl)c(=O)c2cnc(Nc3cccc(OC4CCN(C)CC4)c3)nc12` [Example 516, 6-(2,6-dichlorophenyl)-8-methyl-2-({3-[(1-methylpiperidin-4-yl)oxy]phenyl}amino)pyrimido[4,5-d]pyridazin-5(6H)-one], with 360 pM; and `CN1CCN(c2ccc(Nc3ncc4c(=O)n(-c5c(Cl)cccc5Cl)nc(-c5cccc(O)n5)c4n3)cc2)CC1` [Example 88, 6-(2,6-dichlorophenyl)-8-(6-hydroxypyridin-2-yl)-2-{[4-(4-methylpiperazin-1-yl)phenyl]amino}pyrimido[4,5-d]pyridazin-5(6H)-one], with 5000 pM; and `CCc1nn(-c2c(Cl)cccc2Cl)c(=O)c2cnc(Nc3ccc(N4CCN(C(C)=O)CC4)cc3)nc12` [Example 414, 2-{[4-(4-acetylpiperazin-1-yl)phenyl]amino}-6-(2,6-dichlorophenyl)-8-ethylpyrimido[4,5-d]pyridazin-5(6H)-one], with 750 pM.

`C=CCn1nc(-c2ccco2)c2nc(Nc3ccc(N4CCN(C(C)C)CC4)cc3)ncc2c1=O` [Example 112, 6-allyl-8-(2-furyl)-2-{[4-(4-isopropylpiperazin-1-yl)phenyl]amino}pyrimido[4,5-d]pyridazin-5(6H)-one] returned a Ki of 14000 pM. As for `CN(C)Cc1ccc(Nc2ncc3c(=O)n(-c4ccccc4Cl)nc(-c4cccs4)c3n2)cc1` [Example 209, 6-(2-chlorophenyl)-2-({4-[(dimethylamino)methyl]phenyl}amino)-8-(thiophen-2-yl)pyrimido[4,5-d]pyridazin-5(6H)-one], the figure is 800 pM; as for `CC(=O)N1Cc2cc(Nc3ncc4c(=O)n(-c5c(Cl)cccc5Cl)nc(-c5ccncc5)c4n3)ccc2C2(CC2)C1` [Example 379, 2-[(2′-acetyl-2′,3′-dihydro-1′H-spiro[cyclopropane-1,4′-isoquinolin]-7′-yl)amino]-6-(2,6-dichlorophenyl)-8-(pyridin-4-yl)pyrimido[4,5-d]pyridazin-5(6H)-one], 450 pM.

`C=Cn1cc(-c2nn(-c3c(Cl)cccc3Cl)c(=O)c3cnc(Nc4ccc(N5CCN(C)CC5)cc4)nc23)cn1` [Example 201, 6-(2,6-dichlorophenyl)-8-(1-ethenyl-1H-pyrazol-4-yl)-2-{[4-(4-methylpiperazin-1-yl)phenyl]amino}pyrimido[4,5-d]pyridazin-5(6H)-one] gave a Ki of 200 pM. As for `COc1ccccc1-n1nc(-c2ccccc2)c2nc(Nc3ccc(N4CCN(C)CC4)cc3)ncc2c1=O` [Example 30, 6-(2-methoxyphenyl)-2-{[4-(4-methylpiperazin-1-yl)phenyl]amino}-8-phenylpyrimido[4,5-d]pyridazin-5(6H)-one], the figure is 1000 pM; as for `O=c1c2cnc(Nc3ccc(N4CCNCC4)cc3)nc2c(C(F)F)nn1-c1c(Cl)cccc1Cl` [Example 405, 6-(2,6-dichlorophenyl)-8-(difluoromethyl)-2-{[4-(piperazin-1-yl)phenyl]amino}pyrimido[4,5-d]pyridazin-5(6H)-one], 790 pM; as for `CN1CCN(c2ccc(Nc3ncc4c(=O)n(-c5c(Cl)cccc5Cl)nc(C5CCCC5)c4n3)cc2)CC1` [Example 74, 8-cyclopentyl-6-(2,6-dichlorophenyl)-2-{[4-(4-methylpiperazin-1-yl)phenyl]amino}pyrimido[4,5-d]pyridazin-5(6H)-one], 1000 pM. As for `CCc1nn(-c2c(Cl)cccc2Cl)c(=O)c2cnc(Nc3ccc4c(c3)CNCC4(C)C)nc12` [Example 462, 6-(2,6-dichlorophenyl)-2-[(4,4-dimethyl-1,2,3,4-tetrahydroisoquinolin-7-yl)amino]-8-ethylpyrimido[4,5-d]pyridazin-5(6H)-one], affinity was put at a Ki of 950 pM. As for `Cc1nn(-c2c(Cl)cccc2Cl)c(=O)c2cnc(Nc3cccc(N4CCN(C5CCC5)CC4)c3)nc12` [Example 508, 2-{[3-(4-cyclobutylpiperazin-1-yl)phenyl]amino}-6-(2,6-dichlorophenyl)-8-methylpyrimido[4,5-d]pyridazin-5(6H)-one], the figure is 2000 pM.

Consider `CN1Cc2cc(Nc3ncc4c(=O)n(-c5ccncc5)nc(-c5ccccn5)c4n3)ccc2C(C)(C)C1` [Example 239, 8-(pyridin-2-yl)-6-(pyridin-4-yl)-2-[(2,4,4-trimethyl-1,2,3,4-tetrahydroisoquinolin-7-yl)amino]pyrimido[4,5-d]pyridazin-5(6H)-one], for which the Ki was 25000 pM.
